Test results reported in US9216991B2 (Ares Trading S.A., priority 2012, dated 2015).
pIC50: −log10 of the molar value. Where a name gives a salt, the structure may show the parent alone.

Molecular target: T1, IRAK4 (Homo sapiens, UniProt Q9NWZ3)
T1 construct: His (N); TEV cleavage site (N)
T1 sequence (Q9NWZ3 1-460): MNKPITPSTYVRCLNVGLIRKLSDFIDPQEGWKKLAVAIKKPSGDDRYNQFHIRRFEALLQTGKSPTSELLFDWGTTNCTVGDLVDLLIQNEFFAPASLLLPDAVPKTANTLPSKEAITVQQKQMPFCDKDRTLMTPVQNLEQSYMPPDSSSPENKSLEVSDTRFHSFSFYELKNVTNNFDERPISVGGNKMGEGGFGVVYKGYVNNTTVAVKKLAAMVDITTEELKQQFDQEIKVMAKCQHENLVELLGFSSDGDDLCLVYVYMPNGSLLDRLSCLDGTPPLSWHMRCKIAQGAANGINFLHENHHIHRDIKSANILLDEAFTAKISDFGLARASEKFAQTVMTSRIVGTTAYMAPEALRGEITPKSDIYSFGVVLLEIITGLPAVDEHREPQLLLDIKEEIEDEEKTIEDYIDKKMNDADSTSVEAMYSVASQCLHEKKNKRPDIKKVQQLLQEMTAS
Assay: IRAK4 Enzymatic Assay
Type: biochemical
Conditions: His-TEV-IRAK4 20 ng/well, ATP 2 μM, STK1-biotin peptide 300 nM, 3 hours at 30° C., FlashPlate radioactivity
In short: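 Radiometric FlashPlate readout: biotin-STK1 substrate (300 nM) captured on streptavidin after EDTA stop and washes. Reaction used His-TEV-IRAK4 (20 ng/well), 2 μM [^33P]-spiked ATP and compound (1 nM-20 μM), incubated 3 h at 30 °C in 50 mM HEPES pH 7.0, 10 mM MgCl2, 5 mM MnCl2, 2 mM DTT.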

| Structure (SMILES) | pIC50 |
| --- | --- |
| CN(C)C(=O)C(C)(C)n1cc(-c2cnc(-c3cccc(-c4cnn(C)c4)c3)nc2)cn1 [Example 149, N,N-Dimethyl-2-(4-{2-[3-(1-methyl-1H-pyrazol-4-yl)-phenyl]-pyrimidin-5-yl}-pyrazol-1-yl)-isobutyramide] | 6.00 to 7.00 |
| CN(C)C(=O)[C@H]1CC[C@H](n2cc(-c3cnc(-c4cccc(-c5ccc(N)nn5)c4)nc3)cn2)CC1 [Example 239, Trans-4-(4-{2-[3-(6-Amino-pyridazin-3-yl)-phenyl]-pyrimidin-5-yl}-pyrazol-1-yl)-cyclohexanecarboxylic acid dimethylamide] | 6.00 to 7.00 |
| Cn1cc(-c2cccc(-c3ncc(-c4cn(C5CCOCC5)nc4C(=O)O)cn3)c2)cn1 [Example 140, 4-{2-[3-(1-Methyl-1H-pyrazol-4-yl)-phenyl]-pyrimidin-5-yl}-1-(tetrahydro-pyran-4-yl)-1H-pyrazole-3-carboxylic acid] | 5.30 to 6.00 |
| Cc1ncc(-c2cccc(-c3ncc(-c4cnn(CC(=O)N5CCCC5)c4)cn3)c2)s1 [Example 56, 2-(4-{2-[3-(2-Methyl-thiazol-5-yl)-phenyl]-pyrimidin-5-yl}-pyrazol-1-yl)-1-pyrrolidin-1-yl-ethanone] | 6.00 to 7.00 |
| Cc1ncccc1CCn1cc(-c2cnc(-c3cccc(-c4cnn(C)c4)c3)nc2)cn1 [Example 89, 2-[3-(1-Methyl-1H-pyrazol-4-yl)-phenyl]-5-{1-[2-(2-methyl-pyridin-3-yl)-ethyl]-1H-pyrazol-4-yl}-pyrimidine] | 6.00 to 7.00 |
| OCc1cc(-c2cccc(-c3ncc(-c4cnn(C5CCOCC5)c4)cn3)c2)ccn1 [Example 151, [4-(3-{5-[1-(Tetrahydro-pyran-4-yl)-1H-pyrazol-4-yl]-pyrimidin-2-yl}-phenyl)-pyridin-2-yl]-methanol] | 6.00 to 7.00 |
| CN1CC2CC1CN2C(=O)[C@H]1CC[C@H](n2cc(-c3cnc(-c4cccc(-c5cnn(C)c5)c4)nc3)cn2)CC1 (stereo partly drawn) [Example 278, (5-Methyl-2,5-diaza-bicyclo[2.2.1]hept-2-yl)-trans-[4-(-4-{2-[3-(1-methyl-1H-pyrazol-4-yl)-phenyl]-pyrimidin-5-yl}-pyrazol-1-yl)-cyclohexyl]-methanone hydrobromide] | > 7.00 |
| COCCCn1cc(-c2cnc(-c3cccc(-c4cnn(C)c4)c3)nc2)cn1 [Example 27, 5-[1-(3-Methoxy-propyl)-1H-pyrazol-4-yl]-2-[3-(1-methyl-1H-pyrazol-4-yl)-phenyl]-pyrimidine] | 6.00 to 7.00 |
| Cn1cc(-c2cccc(-c3ncc(-c4cnn([C@H]5CCNC5)c4)cn3)c2)cn1 [Example 125, 2-[3-(1-Methyl-1H-pyrazol-4-yl)-phenyl]-5-((S)-1-pyrrolidin-3-yl-1H-pyrazol-4-yl)-pyrimidine] | 6.00 to 7.00 |
| CCNC(=O)[C@H]1CC[C@H](n2cc(-c3cnc(-c4cccc(-c5cnn(C)c5)c4)nc3)cn2)CC1 [Example 197, Trans-4-(4-{2-[3-(1-Methyl-1H-pyrazol-4-yl)-phenyl]-pyrimidin-5-yl}-pyrazol-1-yl)-cyclohexanecarboxylic acid ethylamide] | > 7.00 |
| CN(C)C(=O)C1CC2(C1)CC(n1cc(-c3cnc(-c4cccc(-c5cnn(C)c5)c4)nc3)cn1)C2 (stereo not drawn) [Example 222, 6-(4-{2-[3-(1-Methyl-1H-pyrazol-4-yl)-phenyl]-pyrimidin-5-yl}-pyrazol-1-yl)-spiro[3.3]heptane-2-carboxylic acid dimethylamide] | 6.00 to 7.00 |
| Cn1cc(-c2cccc(-c3ncc(-c4cnn(C5CCNCC5F)c4)cn3)c2)cn1 (stereo not drawn) [Example 30, trans-5-[1-(3-Fluoro-piperidin-4-yl)-1H-pyrazol-4-yl]-2-[3-(1-methyl-1H-pyrazol-4-yl)-phenyl]-pyrimidine hydrochloride] | 6.00 to 7.00 |
| Cc1cc(-c2cccc(-c3ncc(-c4cnn(C5CCOCC5)c4)cn3)c2)cnn1 [Example 138, 3-Methyl-5-(3-{5-[1-(tetrahydro-pyran-4-yl)-1H-pyrazol-4-yl]-pyrimidin-2-yl}-phenyl)-pyridazine] | 6.00 to 7.00 |
| Cn1cc(-c2cccc(-c3ncc(-c4cnn([C@H]5CC[C@@H](N6CCOCC6)CC5)c4)cn3)c2)cn1 [Example 209, cis-4-[4-(4-{2-[3-(1-Methyl-1H-pyrazol-4-yl)-phenyl]-pyrimidin-5-yl}-pyrazol-1-yl)-cyclohexyl]-morpholine] | 5.30 to 6.00 |
| O=C(Cn1cc(-c2cnc(-c3cccc(-c4ccncc4)c3)nc2)cn1)N1CCOCC1 [Example 68, 1-Morpholin-4-yl-2-{4-[2-(3-pyridin-4-yl-phenyl)-pyrimidin-5-yl]-pyrazol-1-yl}-ethanone] | 5.30 to 6.00 |
| Cn1cc(-c2cccc(-c3ncc(-c4cnn(C5CCN(C(=O)CC(F)(F)F)CC5)c4)cn3)c2)cn1 [Example 114, 3,3,3-Trifluoro-1-[4-(4-{2-[3-(1-methyl-1H-pyrazol-4-yl)-phenyl]-pyrimidin-5-yl}-pyrazol-1-yl)-piperidin-1-yl]-propan-1-one] | 6.00 to 7.00 |
| Cn1cc(-c2cccc(-c3ncc(-c4cnn(C5CCN(C6COC6)CC5)c4)cn3)c2)cn1 [Example 28, 2-[3-(1-Methyl-1H-pyrazol-4-yl)-phenyl]-5-[1-(1-oxetan-3-yl-piperidin-4-yl)-1H-pyrazol-4-yl]-pyrimidine] | 6.00 to 7.00 |
| Cc1nn(C)cc1-c1cccc(-c2ncc(-c3cnn(C4CCNCC4)c3)cn2)c1 [Example 14, 2-[3-(1,3-Dimethyl-1H-pyrazol-4-yl)-phenyl]-5-(1-piperidin-4-yl-1H-pyrazol-4-yl)-pyrimidine hydrochloride] | 5.30 to 6.00 |
| CO[C@@H]1CCN(C(=O)[C@H]2CC[C@H](n3cc(-c4cnc(-c5cccc(-c6cnn(C)c6)c5)nc4)cn3)CC2)C1 [Example 168, ((R)-3-Methoxy-pyrrolidin-1-yl)-trans-[4-(4-{2-[3-(1-methyl-1H-pyrazol-4-yl)-phenyl]-pyrimidin-5-yl}-pyrazol-1-yl)-cyclohexyl]-methanone] | > 7.00 |
| Cn1cc(-c2cccc(-c3ncc(-c4cnn(C5CCN(C(=O)C6CCOCC6)CC5)c4)cn3)c2)cn1 [Example 107, [4-(4-{2-[3-(1-Methyl-1H-pyrazol-4-yl)-phenyl]-pyrimidin-5-yl}-pyrazol-1-yl)-piperidin-1-yl]-(tetrahydro-pyran-4-yl)-methanone] | 6.00 to 7.00 |
| CCOC1CC(N2CCC(n3cc(-c4cnc(-c5cccc(-c6cnn(C)c6)c5)nc4)cn3)CC2)C1(C)C (stereo not drawn) [Example 112, 5-{1-[1-(3-Ethoxy-2,2-dimethyl-cyclobutyl)-piperidin-4-yl]-1H-pyrazol-4-yl}-2-[3-(1-methyl-1H-pyrazol-4-yl)-phenyl]-pyrimidine] | 6.00 to 7.00 |
| c1cc(-c2ccoc2)cc(-c2ncc(-c3cnn(C4CCNCC4)c3)cn2)c1 [Example 7, 2-(3-Furan-3-yl-phenyl)-5-(1-piperidin-4-yl-1H-pyrazol-4-yl)-pyrimidine Hydrochloride] | 6.00 to 7.00 |
| Cn1cc(-c2cccc(-c3ncc(-c4cnn(C5COC5)c4)cn3)c2)cn1 [Example 141, 2-[3-(1-Methyl-1H-pyrazol-4-yl)-phenyl]-5-(1-oxetan-3-yl-1H-pyrazol-4-yl)-pyrimidine] | 6.00 to 7.00 |
| Cn1cc(-c2cccc(-c3ncc(-c4cnn(C5CCOC5=O)c4)cn3)c2)cn1 (stereo not drawn) [Example 129, 3-(4-{2-[3-(1-Methyl-1H-pyrazol-4-yl)-phenyl]-pyrimidin-5-yl}-pyrazol-1-yl)-dihydro-furan-2-one] | 6.00 to 7.00 |
| CC(C)OCC(CO)n1cc(-c2cnc(-c3cccc(-c4cnn(C)c4)c3)nc2)cn1 (stereo not drawn) [Example 214, 3-Isopropoxy-2-(4-{2-[3-(1-methyl-1H-pyrazol-4-yl)-phenyl]-pyrimidin-5-yl}-pyrazol-1-yl)-propan-1-ol] | 5.30 to 6.00 |
| CNC(=O)[C@H]1CC[C@H](n2cc(-c3cnc(-c4cccc(-c5cnn(C)c5)c4)nc3)cn2)CC1 [Example 143, Trans-4-(4-{2-[3-(1-Methyl-1H-pyrazol-4-yl)-phenyl]-pyrimidin-5-yl}-pyrazol-1-yl)-cyclohexanecarboxylic acid methylamide] | > 7.00 |
| O=C(Cn1cc(-c2cnc(-c3cccc(-c4c[nH]nn4)c3)nc2)cn1)N1CCOCC1 [Example 79, 1-Morpholin-4-yl-2-(4-{2-[3-(1H-[1,2,3]triazol-4-yl)-phenyl]-pyrimidin-5-yl}-pyrazol-1-yl)-ethanone] | 5.30 to 6.00 |
| Cn1cc(-c2cccc(-c3ncc(-c4cnn(C5CCN(C6CCOCC6F)CC5)c4)cn3)c2)cn1 (stereo not drawn) [Example 95, Cis-5-{1-[1-(3-Fluoro-tetrahydro-pyran-4-yl)-piperidin-4-yl]-1H-pyrazol-4-yl}-2-[3-(1-methyl-1H-pyrazol-4-yl)-phenyl]-pyrimidine] | 6.00 to 7.00 |
| CCOCC(=O)N1CCC(n2cc(-c3cnc(-c4cccc(-c5cnn(C)c5)c4)nc3)cn2)CC1 [Example 111, 2-Ethoxy-1-[4-(4-{2-[3-(1-methyl-1H-pyrazol-4-yl)-phenyl]-pyrimidin-5-yl}-pyrazol-1-yl)-piperidin-1-yl]-ethanone] | 6.00 to 7.00 |
| Cn1cc(-c2cccc(-c3ncc(-c4cnn(CCN5CCOCC5)c4)cn3)c2)cn1 [Example 10, 4-[2-(4-{2-[3-(1-Methyl-1H-pyrazol-4-yl)-phenyl]-pyrimidin-5-yl}-pyrazol-1-yl)-ethyl]-morpholine] | 6.00 to 7.00 |
